Where two headings read alike, the source gives them in different places.

Type in all cases: cell-based
Assay [1] addresses T1, MRGPRX2 (Homo sapiens, UniProt Q96LB1).
T1 sequence (Q96LB1 1-330): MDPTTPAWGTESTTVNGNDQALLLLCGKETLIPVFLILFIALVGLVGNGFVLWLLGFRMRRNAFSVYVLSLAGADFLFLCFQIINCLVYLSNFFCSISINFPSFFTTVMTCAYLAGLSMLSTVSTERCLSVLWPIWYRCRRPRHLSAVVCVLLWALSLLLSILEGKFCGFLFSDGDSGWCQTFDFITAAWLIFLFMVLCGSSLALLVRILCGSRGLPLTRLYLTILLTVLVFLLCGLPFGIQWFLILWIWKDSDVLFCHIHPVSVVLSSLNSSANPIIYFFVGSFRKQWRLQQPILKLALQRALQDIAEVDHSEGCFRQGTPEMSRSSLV
The experiment in a line: Human ex vivo skin microdialysis, Substance P-stimulated histamine release. As to conditions: Substance P 50 μM; three donors.
Description: Microdialysis probes with a 3,000-kDa molecular weight cutoff (EP Medical, Copenhagen, Denmark) were primed for 1 h using a basal perfusate consisting of 0.1% human serum albumin in piperazine-N,N′-bis(2-ethanesulfonic acid) (PIPES) buffer to minimize non-specific adsorption to probe components.
Skin specimens measuring approximately 4 cm × 14 cm were excised from the parent skin sample, and subcutaneous fat was removed mechanically. The skin specimens were fixated on Styrofoam and guide cannulas (21G) were inserted intradermally at least 1 cm apart and ≥ 1 cm from the edge of the skin specimen. Ten probes were introduced into each skin specimen by means of the guide cannulas with an intradermal probe span of 20 mm. Probes were perfused at a flow rate of 3.0 μL/min (used throughout the experiment) for 30 min using basal perfusate in order to remove any unspecific histamine release caused by insertion trauma.
Next, the dialysate was collected for 10 min to assess basal skin histamine levels (“basal”). The probes were then switched to perfusion with a perfusate containing antagonists at different concentrations for 60 min to pre-treat the skin specimens and evaluate potential off-target effects, which could present as histamine release caused by antagonist itself (“pre-treatment”). […] Histamine in the dialysates was quantified as described above. […]

For assay [2], the target named is T2, monkey MRGPRX2 (Cynomolgus macaques) (Macaca fascicularis, UniProt Q5U9D9).
T2 construct: expressed in transfected cells; host or cells: U2OS transduced with BacMam virus
T2 sequence (Q5U9D9 1-330): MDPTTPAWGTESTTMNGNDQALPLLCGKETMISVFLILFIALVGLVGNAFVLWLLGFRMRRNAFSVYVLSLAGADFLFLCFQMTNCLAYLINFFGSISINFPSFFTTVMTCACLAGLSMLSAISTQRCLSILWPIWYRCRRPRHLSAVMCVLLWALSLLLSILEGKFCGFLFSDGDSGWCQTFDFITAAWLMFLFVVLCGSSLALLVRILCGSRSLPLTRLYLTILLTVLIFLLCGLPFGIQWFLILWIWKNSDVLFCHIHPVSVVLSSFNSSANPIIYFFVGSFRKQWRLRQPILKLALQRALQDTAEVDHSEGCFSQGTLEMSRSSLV
Description: Calcium mobilization in BacMam-transduced U2OS cells. As to conditions: for Antagonist activity: likely due to receptor desensitization upon activation and not real antagonism. As for the experimental part:
(§1) Cell culture reagents were purchased from Thermo Fisher Scientific unless otherwise stated. The LAD2 human mast cell line was in-licensed from National Institutes of Health (NIH) and routinely cultured in StemPro™-34 SFM with nutrient supplement, 1× GlutaMax™, and recombinant human SCF (100 ng/mL). HEK293-MRGPRX2/Gα15 cells were cultured in DMEM containing 10% FBS. The parental U2OS cells were culture in DMEM/F-12 containing 10% FBS. BacMam virus containing human MRGPRX2 gene or animal orthologs [mouse Mrgprb2 (Gene ID: 243979), rat Mrgprb3 (Gene ID: 691194), dog MRGPRX2 (Gene ID: 102125889), cynomolgus monkey MRGPRX2 (Gene ID: 692078), and rhesus monkey MRGPRX2] were used to transduce U2OS cells for transient expression.
(§2) Supplemental Table 1: Compound A and Compound B are human MRGPRX2 selective antagonists. Antagonist and agonist activities of the two compounds were determined in calcium mobilization assays for human MRGPRX2 and its animal orthologs from various species. The activities were measured in […] (Molecular Devices) instrument using U2OS cells transduced with BacMam virus for transient expression of the relevant receptors. Data are presented as mean ± SEM when applicable.
(§3) Compound A and Compound B up to the highest concentration (100 µM) tested. In the antagonist […]
(§4) Compound A and B, respectively. […]
(§5) MRGPRX2 and Gα15 proteins (Fig. 1). On monkey MRGPRX2 receptors (both Cynomolgus […]
(§6) receptor desensitization upon activation and not real antagonism. […]
Background: Calcium flux is commonly read through the fluorescence of an indicator in the cells.

The target of assay [3] is T3, monkey MRGPRX2 (Rhesus macaques) (Macaca mulatta, UniProt Q4QXU5).
T3 construct: expressed in transfected cells; host or cells: U2OS transduced with BacMam virus
The description is as above. As to conditions: for Antagonist activity: likely due to receptor desensitization upon activation and not real antagonism. As to the method:
as §1, §2, §3, §4, §5, §6

The next assay has as its target 5-HT2A receptor (HTR2A) (Homo sapiens, UniProt P28223). The experiment in a line: GPCR selectivity cellular assay. As to the method:
(§7) tagonists, with little activity detected on other GPCRs. Antagonist and/or agonist activities of the two compounds were determined in cellular assays for 20 human G-protein coupled receptors (GPCR) beside MRGPRX2. Recombinant over-expression systems in mammalian cells were used for all assays listed in this table. […]
(§8) reported as ‘>’ the highest compound concentration allowed in that assay.
(§9) GPCR Target Name Gene symbol Mode of Activity Compound-A Compound-B […]
(§10) Agonist Activity (EC50 ) or Antagonist Activity (IC50 ), nM […]

In the next assay the target is T4, CB1 receptor (CNR1) (Homo sapiens, UniProt P21554).
T4 construct: expressed in transfected cells
Description: GPCR selectivity cellular assay. As for the experimental part:
as §7, §8, §9, §10

The next assay concerns the target T5, H1 receptor (HRH1) (Homo sapiens, UniProt P35367).
T5 construct: expressed in transfected cells
Description: GPCR selectivity cellular assay. The settings on record: Antagonism; read-out: Antagonist Activity (IC50). As for the experimental part: as §7, §8, §9, §10

Assay [4] concerns the target T1, MRGPRX2. The experiment in a line: Ca2+ mobilization assay (FLIPR TETRA) in HEK293-MRGPRX2/Gα15 cells. Details: expressed in transfected cells. The settings on record: for EC50: agonist mode, highest concentration tested 30 μM, read-out: Activation of Ca2+ Mobilization EC50. As to the method:
A Ca^2+ mobilization assay was used to screen for small-molecule compounds with agonist or antagonist activity against human MRGPRX2 using HEK293-MRGPRX2/Gα15 cells. Two million small-molecule compounds in GSK collection were screened at single concentration of 10 μM on FLIPR^TETRA (Molecular Devices) instruments in dual detection mode for both activation and inhibition activities. Cortistatin 14 at approximately EC80 concentration was used as the activation ligand for the inhibition phase of the high-throughput screening. Compounds of interest were followed up and characterized in concentration response curves to determine their mode of activity, potency, and selectivity.
Figure 1 Identification of two structurally distinct MRGPRX2 antagonists: Compound (A) and Compound (B). Calcium mobilization assays were performed in FLIPR^TETRA (Molecular Devices) with two novel MRGPRX2 antagonists using HEK293 cells overexpressing MRGPRX2 and Gα15 proteins. […] Dose-dependent inhibition (A) of Cortistatin 14–mediated MRGPRX2 activation was measured, and antagonist potencies (B) are presented as mean ± SEM of 66 or 22 independent experiments for Compound A and Compound B, respectively.

Assay [5] deals with T1, MRGPRX2. The experiment in a line: LAD2 mast cell degranulation (β-hexosaminidase release), MRGPRX2 ligand-mediated. On the set-up: human mast cells expressing endogenous MRGPRX2; endogenous in cells; […]. The settings on record: for IC50: mean ± SEM; for EC50: agonist mode, no mast cell activator, up to 50 μM tested, read-out: Activation of LAD-2 Cells EC50; for Kb: read-out: pA2 (apparent antagonist affinity, Schild analysis) (converted); for Nature of antagonism: vs Substance P concentration response curves. As to the method:
Two different in vitro human mast cell systems were studied: (a) a human mast cell line, LAD2, established from a patient with mast cell sarcoma; and (b) mast cells freshly isolated from human skin. MRGPRX2 antagonist IC50 values were determined in the LAD2 mast cell degranulation assay using approximately EC80 concentrations for five different MRGPRX2 activating ligands (see Supplementary Figure 1 ).

[6] abbreviates: Mast Cell Activator: Compound 48/80 at approx. EC80, read-out: Inhibition of Ligand Mediated LAD-2 Cell Activation and Degranulation IC50.
Where [7] appears, read: Agonism, read-out: Agonist Activity (EC50).

T3 sequence (Q4QXU5 whole entry): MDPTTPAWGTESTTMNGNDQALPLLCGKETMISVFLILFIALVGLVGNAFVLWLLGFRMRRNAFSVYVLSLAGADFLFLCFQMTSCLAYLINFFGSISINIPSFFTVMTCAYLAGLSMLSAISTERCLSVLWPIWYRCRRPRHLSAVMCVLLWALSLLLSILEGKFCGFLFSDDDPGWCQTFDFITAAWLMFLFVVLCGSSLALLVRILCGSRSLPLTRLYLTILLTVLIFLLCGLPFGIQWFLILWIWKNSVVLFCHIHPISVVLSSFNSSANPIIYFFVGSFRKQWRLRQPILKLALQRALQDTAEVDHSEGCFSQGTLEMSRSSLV
5-HT2A receptor (HTR2A), sequence (P28223 whole entry): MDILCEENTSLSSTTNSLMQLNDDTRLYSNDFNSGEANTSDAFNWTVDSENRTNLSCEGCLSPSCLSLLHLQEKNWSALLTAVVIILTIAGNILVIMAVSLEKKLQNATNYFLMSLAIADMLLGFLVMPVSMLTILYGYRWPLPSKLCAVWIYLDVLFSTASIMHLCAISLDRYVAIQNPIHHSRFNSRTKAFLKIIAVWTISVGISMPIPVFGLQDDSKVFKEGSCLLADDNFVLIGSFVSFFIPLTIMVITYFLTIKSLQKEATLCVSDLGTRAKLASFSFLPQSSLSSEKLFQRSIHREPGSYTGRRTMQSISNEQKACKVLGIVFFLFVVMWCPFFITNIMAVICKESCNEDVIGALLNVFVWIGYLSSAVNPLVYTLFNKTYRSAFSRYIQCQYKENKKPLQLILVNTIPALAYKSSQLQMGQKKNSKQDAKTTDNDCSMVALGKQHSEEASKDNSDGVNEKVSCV
T5 sequence (P35367 whole entry): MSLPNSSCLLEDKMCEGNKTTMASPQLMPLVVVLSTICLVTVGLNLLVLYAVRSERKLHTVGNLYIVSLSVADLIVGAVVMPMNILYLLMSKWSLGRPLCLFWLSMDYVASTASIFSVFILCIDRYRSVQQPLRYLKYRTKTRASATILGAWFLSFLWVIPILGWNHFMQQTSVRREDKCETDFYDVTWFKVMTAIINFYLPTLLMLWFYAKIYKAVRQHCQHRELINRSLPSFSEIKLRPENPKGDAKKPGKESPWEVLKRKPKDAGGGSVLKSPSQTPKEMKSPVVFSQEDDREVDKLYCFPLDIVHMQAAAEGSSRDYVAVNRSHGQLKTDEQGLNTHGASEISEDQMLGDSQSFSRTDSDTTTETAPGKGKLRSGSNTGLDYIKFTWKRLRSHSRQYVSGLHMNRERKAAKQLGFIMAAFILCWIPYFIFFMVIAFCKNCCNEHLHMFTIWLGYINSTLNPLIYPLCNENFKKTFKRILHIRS
T4 sequence (P21554 whole entry): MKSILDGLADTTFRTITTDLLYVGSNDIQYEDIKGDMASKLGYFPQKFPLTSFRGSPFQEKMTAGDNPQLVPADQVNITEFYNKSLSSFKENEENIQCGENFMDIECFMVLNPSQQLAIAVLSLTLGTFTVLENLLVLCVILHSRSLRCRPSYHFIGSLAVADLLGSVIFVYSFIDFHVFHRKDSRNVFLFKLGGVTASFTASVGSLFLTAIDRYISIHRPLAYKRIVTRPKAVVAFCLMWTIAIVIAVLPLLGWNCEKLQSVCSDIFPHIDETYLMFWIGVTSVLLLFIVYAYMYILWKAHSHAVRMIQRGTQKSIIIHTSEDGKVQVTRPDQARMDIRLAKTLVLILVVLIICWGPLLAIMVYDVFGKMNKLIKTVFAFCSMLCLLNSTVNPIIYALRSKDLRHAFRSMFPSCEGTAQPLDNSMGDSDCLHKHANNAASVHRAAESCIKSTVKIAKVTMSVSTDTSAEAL

Usually EC50 stands for the concentration at which the effect is half-maximal. The IC50 is the midpoint of a concentration-inhibition curve. Consider `CC1(C)C(C(=O)Nc2ccccn2)C1(C)C` [Compound A], for which, on MRGPRX2 [1], the “Concentration achieving complete blockade of Substance P response (histamine release)” value turned out to be 3 µM. For the same molecule, the Agonist activity entry in assay [2] and in assay [3] was “weak agonist activities” throughout. The Antagonist activity entry in assay [2] and in assay [3] was “very weak antagonist activities” throughout. For the same molecule, the 50% effective concentration (EC50) is more than 100000 nM on 5-HT2A receptor (HTR2A), more than 25000 nM on CB1 receptor (CNR1), more than 30000 nM on MRGPRX2 [4] and more than 50000 nM at MRGPRX2 [5]. The IC50 is 41400 nM against 5-HT2A receptor (HTR2A); more than 25000 nM at H1 receptor (HRH1); 50 nM against MRGPRX2 [4]; 22.8 nM against MRGPRX2 [5] (Inhibition of Ligand Mediated LAD-2 Cell Activation and Degranulation IC50, Mast Cell Activator: Cortistatin-14 at approx. EC80); 61.2 ± 14.3 nM against MRGPRX2 [5] (Inhibition of Ligand Mediated LAD-2 Cell Activation and Degranulation IC50, Mast Cell Activator: PACAP-27 at approx. EC80); 63.3 ± 6.2 nM at MRGPRX2 [5] (Inhibition of Ligand Mediated LAD-2 Cell Activation and Degranulation IC50, Mast Cell Activator: PAMP-12 at approx. EC80). Moreover, the IC50 against MRGPRX2 [5] (Inhibition of Ligand Mediated LAD-2 Cell Activation and Degranulation IC50, Mast Cell Activator: Substance P (1 μM, approx. EC80)) came to 32.4 nM; on MRGPRX2 [5] (setting [6]), 232 ± 26 nM. Moreover, the Kb on MRGPRX2 [5] was 25.7 nM. Besides, the Nature of antagonism entry on MRGPRX2 [5] is listed as “partly surmountable”.

As for `C[C@@H](C(=O)Nc1cnc(Oc2ccc(F)cc2F)cn1)N1CCC(F)(F)[C@@H](c2cc[n+]([O-])cc2)C1` [Compound B], the “Concentration achieving complete blockade of Substance P response (histamine release)” value on MRGPRX2 [1] was 0.03 µM. Moreover, the Agonist activity result in assay [2] and in assay [3] was “weak agonist activities” each time. Moreover, the Antagonist activity result in assay [2] and in assay [3] was “very weak antagonist activities” in each case. The EC50 at 5-HT2A receptor (HTR2A) (setting [7]) was more than 100000 nM; on CB1 receptor (CNR1) (setting [7]), more than 25000 nM; at MRGPRX2 [4], more than 30000 nM; at MRGPRX2 [5] it was more than 50000 nM. Besides, the IC50 is more than 100000 nM on 5-HT2A receptor (HTR2A) (Antagonism, read-out: Antagonist Activity (IC50)); more than 25000 nM on H1 receptor (HRH1); 2.9 nM at MRGPRX2 [4] (Cortistatin 14 at approx. EC80, mean ± SEM of 66 (Compound A) or 22 (Compound B) experiments, read-out: Inhibition of Cort-14 Mediated MRGPRX2 Activation IC50); 4 ± 0.3 nM on MRGPRX2 [5] (setting [6]); 1 nM on MRGPRX2 [5] (Mast Cell Activator: Cortistatin-14 at approx. EC80, read-out: Inhibition of Ligand Mediated LAD-2 Cell Activation and Degranulation IC50); 1.8 ± 0.1 nM on MRGPRX2 [5] (Mast Cell Activator: PACAP-27 at approx. EC80, read-out: Inhibition of Ligand Mediated LAD-2 Cell Activation and Degranulation IC50). Further, the 50% inhibitory concentration (IC50) on MRGPRX2 [5] (Mast Cell Activator: PAMP-12 at approx. EC80, read-out: Inhibition of Ligand Mediated LAD-2 Cell Activation and Degranulation IC50) is 2.6 ± 0.1 nM; at MRGPRX2 [5] (Mast Cell Activator: Substance P (1 μM, approx. EC80), read-out: Inhibition of Ligand Mediated LAD-2 Cell Activation and Degranulation IC50) it was 1.8 ± 0.1 nM. Further, the “Effect on Substance P maximal response” value on MRGPRX2 [5] (7.6 nM antagonist) is “dampen SP’s maximal response”. Moreover, at MRGPRX2 [5] (20 nM antagonist, Substance P 50 μM), the “Effect on degranulation response to highest Substance P concentration” value is “abolish the degranulation response”. The Kb at MRGPRX2 [5] is 0.891 nM. Moreover, the Nature of antagonism entry on MRGPRX2 [5] is “insurmountable”.

Values taken from PMC11527646, “Pharmacological blockade of the mast cell MRGPRX2 receptor supports investigation of its relevance in skin disorders” (Frontiers in Immunology, 2024).
